The source of these data is patent publication US20150024031A1, “Methods And Compositions For Reducing Pain, Inflammation, And/Or Immunological Reactions Associated With Parenterally Administering A Primary Therapeutic Agent” (BAXTER INTERNATIONAL INC., priority 2013, published 2015).

A short description of data set [1]: Drug quantitation in blood, plasma and knee joint tissues. The format is in vivo, Lewis rats. Particulars: for drug in knee tissues: end of study. On the procedure: (§1) The ability of a dispersion comprising microparticles of an analgesic agent according to the invention to mediate pain and inflammation was investigated in an animal model. Lewis rats were inoculated with peptidoglycan-polysaccharide (PG-PS) (5.4 mg/mL, Lee Laboratories) by intraarticular injection in the right knee two weeks prior to the start of the examination period, i.e., on Day −14. PG-PS induces inflammation highly representative of that produced by certain drugs and is also used in models of arthritis. On Day 0, animals were dosed via single intraarticular injection of 70 μL saline, daily oral celecoxib 10 mg/kg, or single intraarticular injection of 70 μL (8.5 mg) ropivacaine suspension. Two hours post-dosing, the inflammatory response was activated by a tail vein injection of 0.5 mL of 0.4 mg/mL PG-PS. […] The animals in the saline and ropivacaine groups were re-dosed on Day 23, after the initial inflammatory response subsided, and the inflammatory response was reactivated on Day 28 by tail vein injection. The oral celecoxib was dosed 10 mg/kg daily throughout the study except for Day 29, when the dose was increased to 50 mg/kg. The test groups are described in Table 4:
(§2) Drug quantitation was performed on blood and plasma samples to assess the pharmacokinetic profiles of the drugs and the levels to which the drugs were present systemically. Knee joint tissues were also assayed for drug concentration in order to determine if any residual drug was present in the joints at the conclusion of the study. In addition, histological analysis and cytokine analysis were performed on knee joint tissues collected during necropsy on Day 30. […] Quantitation of celecoxib was performed on plasma and whole blood samples collected from the rats in Groups 2 to 5 at timepoints of 1, 6, 12, and 24 hours, and at 7, 14, 21, and 29 days. […] Celecoxib levels in Group 2 (saline control) were primarily below the quantitation limit, as expected. Celecoxib was also detected in the knee tissues from Groups 3, 4, and 5, with the Group 3 levels being the highest, followed by Group 4, and finally Group 5. […] Ropivacaine was undetected in the rat knee tissues.

For data set [2] the following is noted: slow release depot dosage form; cited from earlier work.
For data set [3] the following is noted: relative, bupivacaine and ropivacaine; cited from earlier work.
In data set [4] the test system is Lewis rats inoculated with peptidoglycan-polysaccharide (PG-PS). In words: Histopathological examination of stifle joints (synovial inflammation). The class given is in vivo. Particulars: scale of 1 (no inflammation) to 3, necropsy Day 30. The protocol:
as §1, §2

`Cc1ccc(-c2cc(C(F)(F)F)nn2-c2ccc(S(N)(=O)=O)cc2)cc1` [celecoxib]: the “drug in knee tissues” value in data set [1] (Group 3, 10% suspension intraarticular) is recorded as “highest”; in data set [1] (Group 4, 5% suspension intraarticular), “detected”; in data set [1] (Group 5, oral 10 mg/kg/day), “detected”. In addition, the “interval up to which measurable levels were detected in the blood” value in data set [1] (Group 3, intraarticular 70 μL 10% suspension) is no more than 14 days; in data set [1] (Group 4, intraarticular 70 μL 5% suspension) it was no more than 14 days. For the same molecule, the “blood levels compared to Group 3” value in data set [1] (Group 4 (5% suspension) vs Group 3 (10% suspension)) is given as “systematically lower”. Also, the “blood level on Day 29” value in data set [1] (Group 4, intraarticular 70 μL 5% suspension, re-dosed Day 23) is “measurable levels”. Besides, in data set [1] (after intraarticular injection, rat blood), the “persistence of systemic levels in blood” value is given as “approximately 2 weeks”.
Regarding `CCCCN1CCCCC1C(=O)Nc1c(C)cccc1C` (centres unmarked) [bupivacaine], the “minimum tissue drug level found to alleviate pain” value in data set [2] is 30 µg/mL. In addition, the equipotent concentration in data set [3] was 1.
In the case of `Cc1ccc(-c2cc(C(F)(F)F)nn2-c2ccc(S(N)(=O)=O)cc2)cc1` [Oral Celecoxib], in data set [4], the “synovial inflammation score, Animal 1” value amounted to 3; the “synovial inflammation score, Animal 2” value came out at 3; the “synovial inflammation score, Animal 3” value came to 3; the “synovial inflammation score, Animal 4” value was found to be 2.
